Values quoted from earlier work, collected in paper PMC10166914, “GTN057, a komaroviquinone derivative, induced myeloma cells' death in vivo and inhibited c‐MET tyrosine kinase” (Cancer Medicine, 2023).

System: MUM24 cells
Design: method as in PMID 28882484
Settings: read-out: IC50 antiproliferative activity; cited from earlier work

COc1c(O)c2c(c(O)c1C(C)C)C(=O)CC1C(C)(C)CCC[C@]1(O)C2 (stereo partly shown) [GTN054]
IC50: 6.13 µM
